According to article PMC7156456, “Modulation of virus-induced NF-κB signaling by NEMO coiled coil mimics” (Nature Communications, 2020):
Peptide text beside a SMILES is read from it. * marks the point of attachment. Cbz = O=C(OCc1ccccc1)*

Tests used:
[1] = Thermal denaturation by circular dichroism; type: physicochemical; conditions: 5–95 °C
Description: […] The spectra were averaged over 4 scans with the background subtracted to the analogous experimental conditions. Each sample was prepared in a 50 mM potassium fluoride solution in water (pH 7.4) to a final concentration of 20 μM. The concentrations of each peptide were determined by the UV absorption at 280 nm.

vFLIP/NEMO interaction = target: T1, vFLIP/NEMO interaction (Human herpesvirus 8 type P, UniProt F5HEZ4); experiment: biochemical; type: binding, Kaposi's sarcoma herpesvirus (KSHV)
T1 construct: vFLIP (1-178) and NEMO (150-272) were cloned into pET28a vector; made in house; host or cells: E. coli BL21(DE3)
T1 sequence (F5HEZ4 1-178): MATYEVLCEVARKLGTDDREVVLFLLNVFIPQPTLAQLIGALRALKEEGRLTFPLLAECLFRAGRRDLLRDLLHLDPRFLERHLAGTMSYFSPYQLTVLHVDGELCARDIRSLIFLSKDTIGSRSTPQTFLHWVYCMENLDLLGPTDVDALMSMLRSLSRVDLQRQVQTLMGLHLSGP
Description: For the competition assay, two-fold serial dilution of the different NEMO mimetics were prepared in DMSO then diluted in TR-FRET buffer to 5× and added in triplicates to a 384 low volume well plate. His-MBP vFLIP diluted to 5× in TR-FRET buffer (250 nM) was then added to each well and incubated for 15 min at RT. His-Biotinylated NEMO diluted to 5× in TR-FRET buffer (250 nM) was the added to the mixture followed by addition of 5× or 200 nM) streptavidin-XL665 and (5× or 1 nM) of the antibody-tagged fluorophore anti-MBPK labeled with Europium cryptate). The final concentration of the NEMO mimetics ranged from 0.195 μM to 100 μM. Total assay volume was 20 μL. The plate was incubated for 1 h at RT then read using BioTek Synergy NEO. Titration of non-biotinylated NEMO (0.0195-10 μM) was used as a positive control in every run. The effect of the peptides on vFLIP/NEMO interaction was normalized to the control and expressed as percent inhibition (% of control):
%ofcontrol=FRETCHD−FRETbackground/FRETcontrol−FRETbackground where FRET control is the TR-FRET signal in DMSO treated wells (highest signal) and FRET background is TR-FRET signal in wells containing the highest concentration of non-biotinylated NEMO (10 μM) which provides the lowest signal. Normalized TR-FRET data was plotted using Graphpad Prism.
Supplementary Figure 1. Schematic representation of the Time-resolved Fluorescence Energy Transfer (TR-FRET) binding assay. (a) Complexes of recombinant his-MBP vFLIP, biotinylated His-NEMO, Europium cryptate conjugated anti-MBP antibody and strepavidin XL665 were used to generate proximity for a FRET signal between the donor fluorophore Europium cryptate and the acceptor fluorophore strepavidin XL665. The TR-FRET signal was calculated as a ratiometric measurement of the acceptor fluoroscence emission at 665nm over the donor emission at 620nm multiplied by 10000. […] (d) Size exclusion chromatography of NEMO-vFLIP complex indicating a shift to the left in absorbance at 280nm when NEMO binds specifically to vFLIP. […]

BC-3-luc PEL xenograft = experiment: PEL in vivo xenograft mouse model; parameters: species or system NOD-SCID mice; conditions: 20 mg/kg, 9 consecutive days
Description: We injected BC-3-luc PEL cells into the peritoneal cavity of NOD-SCID mice and monitored tumor burden by bioluminescence imaging. […] Although the overall performance of our peptide is highly encouraging, further optimization of delivery and dosing will be essential to achieve more robust responses in vivo.
[…] BC3NFRen-luc#3 were injected intraperitoneally into 4-6 week-old male NOD/SCID mice (Jackson Laboratory, stock 001303). […] We monitored tumor burden or bioluminescence (photons/s/cm^2/steradian) by live imaging and weighing, with the sacrificial endpoint determined to be a net gain or loss of 10% body weight over a week.

Serum stability assay = type: in vitro ADME; conditions: 25% fetal bovine serum in RPMI, HPLC, read-out: initial peptide remained intact
Description: Time points of 30 min, 1 h, 2 h, 8 h, and 24 h were analyzed in triplicate. Each reaction was started upon addition of FBS to 60 μM peptide. Reactions were quenched at time points with addition of 100% EtOH, chilled on ice for 10 min, and pelleted at 11,752 × g. Supernatant was injected onto an Agilent analytical HPLC equipped with an XTerra RP18 3.5 µm 2.1 × 150 mm column (Part No. 186000410) and visualized at 220 nm. Integration of peak areas was used to determine percent degradation of peptides. Mass of cleaved products were determined using Matrix assisted laser desorption ion time of flight (MALDI-TOF) spectroscopy.

BC-1 PEL cells = experiment: Live cell confocal microscopy, cellular uptake; type: cell-based
Description: Cells were then added to 35 mm glass bottom MatTek poly-lysine coated plates (p356c-0-10C) and immunofluorescence images were captured using LSM880 confocal miscroscope with Airyscan resolution detector, spectral detector and incubation. Images were processed using Fiji software (Supplementary Fig. 11).

full length NEMO = full length NEMO (Homo sapiens, UniProt Q9Y6K9); experiment: Fluorescence polarization direct binding assay, NEMO control
Chain of full length NEMO (Q9Y6K9 193-252 limits assumed): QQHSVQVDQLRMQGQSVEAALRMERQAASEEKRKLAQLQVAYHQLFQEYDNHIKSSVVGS
Description: The relative affinity of FITC-CHD3^NEMO to MBP-vFLIP were determined using fluorescence polarization-based direct binding assay. The polarization experiments were performed using a DTX 880 Multimode Detector (Beckman) at 25 °C with excitation and emission wavelengths of 485 and 525 nm, respectively. Each polarization experiment was performed in a 96-well round bottom plate (Greiner) in assay buffer: 20 mM Tris-HCl, 150 mM NaCl, 0.5 mM TCEP, 10% glycerol, 0.1% pluronic acid, pH 8. The binding affinity (KD) values reported for each peptide are from experiments performed in triplicate. Raw values were fit to a sigmoidal dose-response nonlinear regression model in Graphad Prism 6.0.
All binding experiments with FITC-labeled CHD peptide to MBP-vFLIP were performed under the same conditions. Briefly, serial dilutions of MBP-vFLIP were made from 75 μM into 100 nM of FITC-labeled CHD peptide in assay buffer. KD was determined using the following equation[56]: KD=RT×1−FSB+LST×FSB2/FSB−LST where, […]

[2] = system: vFLIP and NEMO levels in Namalwa Mut vFLIP cell line; experiment: vFLIP protein stability, Namalwa Mut vFLIP cell line; type: cell-based; conditions: 5 μM, within 2 h of treatment
Description: vFLIP protein stability and turnover was measured by treating Namalwa WT vFLIP and NF-kB dead vFLIP mutant cell lines in the presence or absence of 5 μM of the proteasomal inhibitor MG-132 (Calbiochem cat 474790) and 100 μg/mL of the protein synthesis inhibitor cycloheximide (Sigma-Aldrich, cat. 66-81-9). Cells were harvested at the indicated time intervals and lysed in RIPA buffer and supernatants were analyzed by immunoblotting.

BCBL-1 = system: BCBL-1; parameters: method as in earlier work; conditions: BCBL-1, PEL, KSHV+; ref 2,3,4 (supplement); read-out: PU-H71 LC50; cited from earlier work
Namalwa = system: Namalwa; parameters: method as in earlier work; conditions: Burkitt, EBV+, ref 2,3,4 (supplement), read-out: PU-H71 LC50; cited from earlier work
BC-2 = system: BC-2; parameters: method as in earlier work; conditions: BC-2, PEL, KSHV+/EBV+; ref 2,3,4 (supplement); read-out: PU-H71 LC50; cited from earlier work
BC-3 = system: BC-3; parameters: method as in earlier work; conditions: BC-3, PEL, KSHV+; ref 2,3,4 (supplement); read-out: PU-H71 LC50; cited from earlier work
BC-1 = system: BC-1; parameters: method as in earlier work; conditions: BC-1, PEL, KSHV+/EBV+; ref 2,3,4 (supplement); read-out: PU-H71 LC50; cited from earlier work

SMILES: CC[C@H](C)[C@H](NC(=O)[C@H](CC(C)C)NC(=O)[C@H](CCC(=O)O)NC(=O)[C@H](CC(=O)O)NC(=O)[C@@H](NC(=O)[C@H](CCCCn1cc(COCc2cn(CCCC[C@H](NC(=O)[C@H](CC(C)C)NC(=O)[C@H](CCCNC(=N)N)NC(=O)[C@H](CCCNC(=N)N)NC(=O)[C@@H](NC(=O)[C@H](CCC(=O)NC3CCCCC3)NC(=O)[C@H](CCC(=O)O)NC(=O)[C@H](Cc3c[nH]c4ccccc34)NC(=O)[C@H](CC(C)C)NC(=O)[C@H](CCC(N)=O)NC(=O)[C@H](CCCNC(=N)N)NC(=O)[C@@H](NC(=O)[C@H](Cc3c[nH]c4ccccc34)NC(=O)[C@H](CCC(=O)O)NC(C)=O)[C@@H](C)CC)[C@@H](C)CC)C(N)=O)nn2)nn1)NC(=O)[C@H](CCCNC(=N)N)NC(=O)[C@H](Cc1ccccc1)NC(=O)[C@H](CC(C)C)NC(=O)[C@H](CCCNC(=N)N)NC(=O)[C@H](Cc1c[nH]cn1)NC(=O)[C@@H](NC(=O)[C@H](CCC(=O)O)NC(C)=O)[C@@H](C)CC)[C@@H](C)CC)C(=O)N[C@@H](CCCNC(=N)N)C(N)=O [CHD3^NEMO]
- conformational stability (helix percentage) [1]: retain a significant proportion of helix percentage at high temperatures
- Ki (vFLIP/NEMO interaction): 6.9 ± 1.4 µM
- toxicity (BC-3-luc PEL xenograft): without any observed toxicity
- remaining at 24 h, 60 μM (Serum stability assay): ~80%

SMILES: CC[C@H](C)[C@H](NC(=O)[C@H](CC(C)C)NC(=O)[C@H](CCC(=O)O)NC(=O)[C@H](CC(=O)O)NC(=O)[C@@H](NC(=O)[C@H](CCCCn1cc(COCc2cn(CCCC[C@H](NC(=O)[C@H](CC(C)C)NC(=O)[C@H](CCCNC(=N)N)NC(=O)[C@H](CCCNC(=N)N)NC(=O)[C@@H](NC(=O)[C@H](CCC(=O)NC3CCCCC3)NC(=O)[C@H](CCC(=O)O)NC(=O)[C@H](Cc3c[nH]c4ccccc34)NC(=O)[C@H](CC(C)C)NC(=O)[C@H](CCC(N)=O)NC(=O)[C@H](CCCNC(=N)N)NC(=O)[C@@H](NC(=O)[C@H](Cc3c[nH]c4ccccc34)NC(=O)[C@H](CCC(=O)O)NC(=O)CCNC(=S)Nc3ccc4c(c3)C(=O)OC43c4ccc(O)cc4Oc4cc(O)ccc43)[C@@H](C)CC)[C@@H](C)CC)C(N)=O)nn2)nn1)NC(=O)[C@H](CCCNC(=N)N)NC(=O)[C@H](Cc1ccccc1)NC(=O)[C@H](CC(C)C)NC(=O)[C@H](CCCNC(=N)N)NC(=O)[C@H](Cc1c[nH]cn1)NC(=O)[C@@H](NC(=O)[C@H](CCC(=O)O)NC(C)=O)[C@@H](C)CC)[C@@H](C)CC)C(=O)N[C@@H](CCCNC(=N)N)C(N)=O [FITC-CHD3^NEMO]
- cellular uptake (BC-1 PEL cells; 500 nM FITC-labeled peptide, 37 °C, live BC-1 cells): enters BC-1 cells
- cellular uptake at 4 °C / with sodium azide (BC-1 PEL cells; 4 °C or 10 mM sodium azide): reduction in cellular uptake
- binding to wild-type NEMO coiled coil (full length NEMO): does not bind

SMILES: CC(C)C[C@@H](C=O)NC(=O)[C@H](CC(C)C)NC(=O)[C@H](CC(C)C)NC(=O)OCc1ccccc1 [MG132] (Cbz-Leu-Leu-Leu-aldehyde)
- vFLIP and NEMO protein levels [2]: stabilized vFLIP protein and increased NEMO levels

SMILES: CC(C)NCCCn1c(Sc2cc3c(cc2I)OCO3)nc2c(N)ncnc21 [PU-H71]
- CC50 (BCBL-1): 0.217 µM
- CC50 (Namalwa): 0.337 µM
- CC50 (BC-2): 0.0271 µM
- CC50 (BC-3): 0.0634 µM
- CC50 (BC-1): 0.0369 µM
